Source: patent US20090270407A1, “FUNGICIDAL ISOXAZOLIDINES” (E. I. DU PONT DE NEMOURS AND COMPANY, priority 2008, published 2009)
Marks after values point to notes of the source that are not given here.

What was measured:
Conditions in all cases: 100 = 100 % disease control, 0 = no disease control relative to controls
[1] = tested on: Erysiphe graminis f. sp. tritici; assay: Test A: wheat powdery mildew, preventive spray on wheat seedlings, visual disease rating
Description: (§1) General protocol for preparing test suspensions for Tests A-I: The test compounds were first dissolved in acetone in an amount equal to 3% of the final volume and then suspended at the desired concentration (in ppm) in acetone and purified water (50/50 mix) containing 250 ppm of the surfactant Trem® 014 (polyhydric alcohol esters). The resulting test suspensions were then used in Tests A-I. Spraying a 200 ppm test suspension to the point of run-off on the test plants was the equivalent of a rate of 500 g/ha. (An asterisk “*” next to the rating value indicates a 40 ppm test suspension.)
The test suspension was sprayed to the point of run-off on wheat seedlings. The following day the seedlings were inoculated with a spore dust of Erysiphe graminis f. sp. tritici (the causal agent of wheat powdery mildew) and incubated in a growth chamber at 20° C. for 8 days, after which time visual disease ratings were made.

Alternaria solani = assay: Test F: tomato early blight, preventive spray on tomato seedlings, visual disease rating
Description: as §1
The test suspension was sprayed to the point of run-off on tomato seedlings. The following day the seedlings were inoculated with a spore suspension of Alternaria solani (the causal agent of tomato early blight) and incubated in a saturated atmosphere at 27° C. for 48 h, and then moved to a growth chamber at 20° C. for 5 days, after which time visual disease ratings were made.
(§2) A dash (−) indicates no test results. All results are for 200 ppm except where followed by “*” which indicates 40 ppm.

Septoria nodorum = assay: Test C: wheat glume blotch, preventive spray on wheat seedlings, visual disease rating
Description: (An asterisk “*” next to the rating value indicates a 40 ppm test suspension.)
The test suspension was sprayed to the point of run-off on wheat seedlings. The following day the seedlings were inoculated with a spore suspension of Septoria nodorum (the causal agent of wheat glume blotch) and incubated in a saturated atmosphere at 20° C. for 48 h, and then moved to a growth chamber at 20° C. for 7 days, after which time visual disease ratings were made.
as §2

[2] = tested on: Puccinia recondita f. sp. tritici; assay: Test B: wheat leaf rust, preventive spray on wheat seedlings, visual disease rating
Description: General protocol for preparing test suspensions for Tests A-I: The test compounds were first dissolved in acetone in an amount equal to 3% of the final volume and then suspended at the desired concentration (in ppm) in acetone and purified water (50/50 mix) containing 250 ppm of the surfactant Trem® 014 (polyhydric alcohol esters). The resulting test suspensions were then used in Tests A-I. Spraying a 200 ppm test suspension to the point of run-off on the test plants was the equivalent of a rate of 500 g/ha.
The test suspension was sprayed to the point of run-off on wheat seedlings. The following day the seedlings were inoculated with a spore suspension of Puccinia recondita f. sp. tritici (the causal agent of wheat leaf rust) and incubated in a saturated atmosphere at 20° C. for 24 h, and then moved to a growth chamber at 20° C. for 7 days, after which time visual disease ratings were made.
All results are for 200 ppm except where followed by “*” which indicates 40 ppm.

Septoria tritici = assay: Test D: wheat leaf blotch, preventive spray on wheat seedlings, visual disease rating; type: in vivo
Description: A dash (−) indicates no test results.

Botrytis cinerea = assay: Test E: tomato Botrytis, preventive spray on tomato seedlings, visual disease rating

| SMILES | Test A disease control rating ([1]; 200 ppm) | Test F disease control rating (Alternaria solani; 200 ppm) | Test C disease control rating (Septoria nodorum; 200 ppm) | Test B disease control rating ([2]; 200 ppm) | Test D disease control rating (Septoria tritici; 200 ppm) | Test E disease control rating (Botrytis cinerea; 200 ppm) | Test A disease control rating ([1]; 40 ppm (marked *)) | Test F disease control rating (Alternaria solani; 40 ppm (marked *)) | Test C disease control rating (Septoria nodorum; 40 ppm (marked *)) | Test B disease control rating ([2]; 40 ppm (marked *)) | Test D disease control rating (Septoria tritici; 40 ppm (marked *)) | Test E disease control rating (Botrytis cinerea; 40 ppm (marked *)) |
| --- | --- | --- | --- | --- | --- | --- | --- | --- | --- | --- | --- | --- |
| CN1OC(C)(c2cccnc2)CC1c1ccccc1Br (stereo not drawn) [Compound 66] | 0% | 0% | 0% | 0% | 5% | 0% | – | – | – | – | – | – |
| CN1OC(C)(c2cccnc2)CC1c1ccc(-n2ccc(-c3cccs3)n2)cc1 (stereo not drawn) [Compound 46] | – | – | – | – | – | – | 0* % | 0* % | 0* % | 0* % | 62* % | 78* % |
| CN1OC(C)(c2cccnc2)CC1c1ccc(-c2ccn(CC(F)(F)F)n2)cc1 (mixture of isomers) [Compound 80] | 0% | 0% | 0% | 0% | 94% | 0% | – | – | – | – | – | – |
| CN1OC(C)(c2cccnc2)CC1c1ccc(-n2ccc(-c3ccc(Br)cc3)n2)cc1 (stereo not drawn) [Compound 48] | – | – | – | – | – | – | 61* % | 0* % | 0* % | 0* % | 43* % | 20* % |
| CN1OC(C)(c2cccnc2)CC1c1ccccc1F (stereo not drawn) [Compound 78] | 0% | 0% | 0% | 0% | 16% | 0% | – | – | – | – | – | – |
| CN1OC(C)(c2cccnc2)CC1c1ccc(-c2ccncc2)cc1 (stereo not drawn) [Compound 61] | – | – | – | – | – | – | 0* % | 0* % | 0* % | 0* % | 5* % | 0* % |
| CN1OC(C)(c2cccnc2)CC1c1ccccc1F (stereo not drawn) [Compound 79] | 0% | 0% | 22% | 27% | 7% | 0% | – | – | – | – | – | – |
| COc1ccc(C2CC(C)(c3cccnc3)ON2C)c2ccccc12 (mixture of isomers) [Compound 68] | 0% | 0% | 0% | 0% | 65% | 0% | – | – | – | – | – | – |
| CN1OC(C)(c2cccnc2)CC1c1ccccc1Cl (stereo not drawn) [Compound 92] | 0% | 0% | 0% | 0% | 22% | 0% | – | – | – | – | – | – |
| CN1OC(C)(c2cccnc2)CC1c1cccc(Cl)c1 (stereo not drawn) [Compound 77] | 0% | 0% | 0% | 0% | 62% | 0% | – | – | – | – | – | – |
| CN1OC(C)(c2cccnc2)CC1c1cccc2c1OC(F)(F)O2 (stereo not drawn) [Compound 91] | 0% | 0% | 0% | 0% | 0% | 0% | – | – | – | – | – | – |
| Cc1cc(C)n(-c2ccc(C3CC(C)(c4cccnc4)ON3C)cc2)n1 (stereo not drawn) [Compound 51] | – | – | – | – | – | – | 0* % | 0* % | 0* % | 0* % | 32* % | 0* % |
| COc1cc(Br)ccc1C1CC(C)(c2cccnc2)ON1C (stereo not drawn) [Compound 86] | 91% | 0% | 0% | 9% | 76% | 0% | – | – | – | – | – | – |
| CN1OC(C)(c2cccnc2)CC1c1ccc(-c2cccs2)cc1 (stereo not drawn) [Compound 54] | – | – | – | – | – | – | 71* % | 99* % | 98* % | 9* % | 79* % | 99* % |
| CN1OC(C)(c2cccnc2)CC1c1ccc(-c2cncnc2)cc1 (stereo not drawn) [Compound 53] | – | – | – | – | – | – | 0* % | 31* % | 0* % | 0* % | 68* % | 25* % |
| CN1OC(C)(c2cccnc2)CC1c1ccc(-n2nc(C(F)(F)F)cc2-c2ccccn2)cc1 (stereo not drawn) [Compound 70] | – | – | – | – | – | – | 0* % | 72* % | 0* % | 26* % | 54* % | 0* % |
| CN1OC(C)(c2cccnc2)CC1c1ccc(-n2ccc(-c3cccs3)n2)cc1 (stereo not drawn) [Compound 47] | – | – | – | – | – | – | 35* % | 0* % | 0* % | 0* % | 42* % | 0* % |
| Cc1cnn(-c2ccc(C3CC(C)(c4cccnc4)ON3C)cc2)c1 (stereo not drawn) [Compound 69] | – | – | – | – | – | – | 0* % | 99* % | 97* % | 0* % | 12* % | 87* % |
| CN1OC(C)(c2cccnc2)CC1c1cccc2ccccc12 (mixture of isomers) [Compound 62] | 97% | 91% | 97% | 17% | 80% | 88% | – | – | – | – | – | – |
| CN1OC(C)(c2cccnc2)CC1c1ccccc1I (mixture of isomers) [Compound 88] | 81% | 0% | 0% | 27% | 70% | 0% | – | – | – | – | – | – |
| CN1OC(C)(c2cccnc2)CC1c1ccc(-n2nc(-c3ccccn3)cc2C(F)(F)F)cc1 (stereo not drawn) [Compound 75] | – | – | – | – | – | – | 0* % | 0* % | 0* % | 22* % | 19* % | 0* % |
| CN1OC(C)(c2cccnc2)CC1c1ccc(-c2cncnc2)cc1 (stereo not drawn) [Compound 52] | – | – | – | – | – | – | 0* % | 59* % | 99* % | 0* % | 76* % | 92* % |
| CN1OC(C)(c2cccnc2)CC1c1ccc(Br)c(F)c1 (stereo not drawn) [Compound 101] | 99% | 99% | 86% | 0% | 68% | 100% | – | – | – | – | – | – |
| CN1OC(C)(c2cccnc2)CC1c1ccc(-n2nc(C(F)(F)F)cc2-c2ccccn2)cc1 (stereo not drawn) [Compound 71] | – | – | – | – | – | – | 0* % | 12* % | 0* % | 28* % | 10* % | 0* % |
